# Measured values taken from publication PMC8175350, “Drug repurposing screens identify chemical entities for the development of COVID-19 interventions” (Nature Communications, 2021).
# “And” between values parts separate entries of the source, which are not always exact repeats. Identical values can stand only once. Like-named read-outs stand apart in the source and are kept apart here.
# Experiments:
# [1] = Uninfected HeLa-ACE2 24 h live/dead cytotoxicity counter screen; format: cell-based, human; details: human, uninfected HeLa-ACE2 cells, geomean; read-out: uninfected HeLa-ACE2 cytotoxicity CC50
# HeLa-ACE2 cells [2] = assay: as above; format: cell-based, human; details: HeLa-ACE2, replicate wells n=1-3
# HeLa-ACE2 cells [3] = assay: cells; details: Homo sapiens, HeLa-ACE2, read-out: cell count in infection assay EC50, HeLa-ACE2, geomean; ^↑ = increasing dose-response curve
# SARS-CoV-2 [4] = assay: microbe, parasite or virus in culture; format: cell-based; details: for %infected: Calu-3, replicate wells n=1-3
# SARS-CoV-2 [5] = assay: microbe, parasite or virus in culture; format: cell-based; details: for %infected: HeLa-ACE2, replicate wells n=1-3
# [6] = Uninfected Calu-3 48 h Cell-Titer Glo cytotoxicity counter screen; details: human, uninfected Calu-3 cells, cytotoxicity CC50, uninfected Calu-3, geomean
# Calu-3 cells [7] = assay: as above; details: Calu-3, replicate wells n=1-3
# SARS-CoV-2 [8] = assay: microbe, parasite or virus in culture; format: cell-based; details: for TOA: HeLa-ACE2, replicate wells n=1-3
# Calu-3 cells [9] = assay: cells; details: Homo sapiens, Calu-3, read-out: cell count EC50, Calu-3, geomean; ^↑ = increasing dose-response curve
smiles,measurement,setting,value
COc1ccc(C[C@H](N)C(=O)N[C@H]2[C@@H](O)[C@H](n3cnc4c(N(C)C)ncnc43)O[C@@H]2CO)cc1 [Puromycin],CC50 at 24 h,[1],0.658 µM
same,cytotox,HeLa-ACE2 cells [2]; concentration log[M] -4.39794,-100 (5×) and -99.957 and -100.055 and -99.8917 and -99.5551
same,cytotox,HeLa-ACE2 cells [2]; concentration log[M] -4.87506,-100 (5×) and -100.043 and -100.055 and -99.8917 and -99.8888
same,cytotox,HeLa-ACE2 cells [2]; concentration log[M] -5.35218,-99.2405 and -100.043 and -100 and -99.7082 and -99.8513 and -99.7143 and -99.834 and -99.8917 and -99.8888
same,cytotox,HeLa-ACE2 cells [2]; concentration log[M] -5.8293,-94.5992 and -94.54 and -94.2197 and -97.5201 and -91.5242 and -94.1429 and -95.9602 and -98.5916 and -99.2214
same,cytotox,HeLa-ACE2 cells [2]; concentration log[M] -6.30643,-16.5401 and -18.2717 and -10.2395 and -53.9023 and -53.9033 and -44.2857 and -37.078 and -52.3294 and -37.5973
same,cytotox,HeLa-ACE2 cells [2]; concentration log[M] -6.78355,-2.194 and 3.482 and 5.615 and -5.9081 and 6.4684 and -6.286 and -2.656 and 2.0585 and 1.78
same,cytotox,HeLa-ACE2 cells [2]; concentration log[M] -7.26067,9.198 and 8.212 and 13.6251 and -16.9949 and 6.9145 and -11.5714 and 1.66 and 4.117 and 13.2369
same,cytotox,HeLa-ACE2 cells [2]; concentration log[M] -7.73779,5.148 and 2.193 and 2.395 and 7.367 and 9.294 and 9.714 and 11.1787 and -1.625 and 6.897
same,EC50,HeLa-ACE2 cells [3],1.55 µM
same,%infected,SARS-CoV-2 [4]; concentration log[M] -5,-95.8583% and -98.0315% and -98.6862% and -95.9501% and -76.0417% and -82.6326% and -93.9332% and -99.6609% and -93.5404%
same,%infected,SARS-CoV-2 [4]; concentration log[M] -5.47712,-67.9332% and -73.9862% and -77.2001% and -69.7882% and -47.5028% and -51.8982% and -50.0755% and -50.9352% and -58.0559%
same,%infected,SARS-CoV-2 [4]; concentration log[M] -5.95424,-28.7555% and -23.4276% and -35.8088% and -33.2702% and 12.7351% and -26.1199% and 1.582% and -3.868% and -16.5101%
same,%infected,SARS-CoV-2 [4]; concentration log[M] -6.43136,-8.682% and 16.1023% and -10.697% and 2.701% and -30.2762% and -2.034% and 9.733% and 3.624% and 18.0604%
same,%infected,SARS-CoV-2 [4]; concentration log[M] -6.90849,14.8237% and -16.8235% and 10.3561% and -2.261% and -10.1676% and -3.437% and 1.061% and 10.2779% and -14.1014%
same,%infected,SARS-CoV-2 [4]; concentration log[M] -7.38561,9.109% and 11.8626% and -0.1312% and 10.7467% and -22.0858% and 7.736% and -8.662% and -8.078% and 8.576%
same,%infected,SARS-CoV-2 [4]; concentration log[M] -7.86273,-4.7462% and 13.3419% and -1.416% and -3.878% and 20.4436% and -1.961% and -6.536% and -8.873% and -15.4821%
same,%infected,SARS-CoV-2 [4]; concentration log[M] -8.33985,2.5816% and -20.6025% and -3.165% and -4.091% and -15.6383% and 9.983% and 19.7898% and 7.961% and 5.366%
same,EC50,"SARS-CoV-2 [4]; Severe acute respiratory syndrome coronavirus 2, Calu-3, Calu-3, geomean, read-out: SARS-CoV-2 EC50",2.74 µM
same,EC50,"SARS-CoV-2 [5]; HeLa-ACE2, individual values of 9 independent experiments, read-out: EC50 (µM), Fig 1c",0.435 µM and 0.38 µM and 0.598 µM and 0.621 µM and 0.45 µM and 0.531 µM and 0.521 µM and 0.566 µM and 0.31 µM
same,%infected,SARS-CoV-2 [5]; concentration log[M] -5.017,-100.174% and -66.1982% and -101.885% and -101.158% and -100.229% and -100.414% and -100.159% and -100.524% and -100%
same,%infected,SARS-CoV-2 [5]; concentration log[M] -5.4942,-100.174% and -93.9019% and -89.6683% and -95.454% and -98.8405% and -100.414% and -93.5473% and -100.524% and -98.8065%
same,%infected,SARS-CoV-2 [5]; concentration log[M] -5.9713,-100.174% and -98.3678% and -99.6425% and -99.9897% and -99.6057% and -100.414% and -99.8612% and -100.183% and -99.7407%
same,%infected,SARS-CoV-2 [5]; concentration log[M] -6.4484,1.313%
same,EC50,"SARS-CoV-2 [5]; Severe acute respiratory syndrome coronavirus 2, HeLa-ACE2, HeLa-ACE2, MOI 0.09, read-out: EC50",0.52 µM
same,EC50,"SARS-CoV-2 [5]; Severe acute respiratory syndrome coronavirus 2, HeLa-ACE2, HeLa-ACE2, MOI 0.26, read-out: EC50",0.433 µM
same,EC50,"SARS-CoV-2 [5]; Severe acute respiratory syndrome coronavirus 2, HeLa-ACE2, HeLa-ACE2, MOI 0.51, read-out: EC50",0.43 µM
same,EC50,"SARS-CoV-2 [5]; Severe acute respiratory syndrome coronavirus 2, HeLa-ACE2, HeLa-ACE2, MOI 1.1, read-out: EC50",0.431 µM
same,EC50,"SARS-CoV-2 [5]; Severe acute respiratory syndrome coronavirus 2, HeLa-ACE2, HeLa-ACE2, MOI 2.2, read-out: EC50",0.455 µM
same,EC50,"SARS-CoV-2 [5]; Severe acute respiratory syndrome coronavirus 2, HeLa-ACE2, HeLa-ACE2, geomean, read-out: SARS-CoV-2 EC50",0.48 µM
same,CC50 at 48 h,[6],3.95 µM
same,cytotox,Calu-3 cells [7]; concentration log[M] -4.52288,-100.931 and -99.9022 and -95.4488 and -97.7263 and -96.8224 and -101.443 and -97.7214 and -100.308 and -97.0229
same,cytotox,Calu-3 cells [7]; concentration log[M] -5,-80.4262 and -81.4732 and -68.7172 and -83.9318 and -82.4069 and -88.2536 and -90.1262 and -91.0255 and -86.7764
same,cytotox,Calu-3 cells [7]; concentration log[M] -5.47712,-21.5211 and -21.4754 and -12.3695 and -29.1257 and -36.4975 and -41.3268 and -49.2553 and -54.1555 and -56.8603
same,cytotox,Calu-3 cells [7]; concentration log[M] -5.95424,-2.83 and -11.281 and -7.043 and -17.8087 and -13.674 and -31.1214 and -23.8075 and -33.8515 and -29.7354
same,cytotox,Calu-3 cells [7]; concentration log[M] -6.43136,2.078 and 1.682 and 8.441 and -6.555 and 0.06053 and -11.5086 and -12.2093 and -0.8504 and -4.056
same,cytotox,Calu-3 cells [7]; concentration log[M] -6.90848,3.604 and 1.518 and 9.871 and 2.227 and 16.0597 and -0.8904 and 5.168 and 1.586 and 4.2472
same,cytotox,Calu-3 cells [7]; concentration log[M] -7.38561,8.858 and -2.4064 and 3.577 and 15.479 and 1.71 and -0.4894 and 11.4275 and 7.753 and 11.1753
same,cytotox,Calu-3 cells [7]; concentration log[M] -7.86273,1.729 and -14.6095 and -2.223 and 9.032 and 7.858 and -12.5661 and -1.561 and 2.663 and 8.58
same,TOA,SARS-CoV-2 [8]; concentration log[M] -5.017,-102.365 and -102.878 and -104.791 and -98.49 and -99.8269 and -99.8889 and -98.5459 and -89.5564 and -100
same,TOA,SARS-CoV-2 [8]; concentration log[M] -5.4942,-102.562 and -103.725 and -107.111 and -95.8769 and -99.8786 and -99.7495 and -98.3444 and -97.4941 and -99.8965
same,TOA,SARS-CoV-2 [8]; concentration log[M] -5.9713,-102.27 and -103.614 and -103.314 and -96.7138 and -100 (3×) and -98.3433 and -92.9164
same,TOA,SARS-CoV-2 [8]; concentration log[M] -6.4484,-6.41 and -22.1743 and -1.526 and -76.305 and -86.1829 and -83.03 and -58.994 and -58.9112 and -89.0793
same,TOA,SARS-CoV-2 [8]; concentration log[M] -6.9255,-12.6152 and -14.5357 and 3.304 and -16.4877 and -30.7409 and -13.5207 and -8.881 and -3.253 and -32.0225
same,TOA,SARS-CoV-2 [8]; concentration log[M] -7.4026,-1.409 and 2.055 and 2.822 and -9.903 and -4.893 and -5.119 and -5.9163 and -2.505 and -5.006
same,TOA,SARS-CoV-2 [8]; concentration log[M] -7.8798,-0.7005 and -1.372 and 4.453 and -4.998 and -0.516 and 2.028 and -14.3841 and -2.585 and -13.6565
same,EC50,"SARS-CoV-2 [8]; Severe acute respiratory syndrome coronavirus 2, HeLa-ACE2, fixed 10 hpi, geomean, read-out: CoV-2 TOA EC50",0.316 µM
same,EC50,Calu-3 cells [9],> 10 µM
